Test results published in patent US10238658B2, “1-pyrazolyl-3-(4-((2-anilinopyrimidin-4-yl) oxy) napththalen-1-yl) ureas as p38 MAP kinase inhibitors” (Respivert Limited, priority 2011, dated 2019).

Key:
IL-8 = test: LPS-stimulated IL-8 production in sputum macrophages from COPD; assay type: cell-based; conditions: Homo sapiens, Macrophage
Procedure: Patients with COPD were inhaled with a nebulised solution of 3% (w/v) hypertonic saline using an ultrasonic nebuliser (Devilbiss, Carthage, Mo.) with tidal breathing for 5 min. This procedure was repeated a maximum of three times until enough sputum was obtained. The sputum samples were homogenized and mixed vigorously using a vortex mixer in 0.02% v/v dithiothreitol (DTT) solution. The samples were re-suspended in PBS (40 mL) followed by centrifugation at 1500 rpm at 4° C. for 10 min to obtain sputum cell pellets. The pellets were washed twice with PBS (40 mL). The sputum cells were then re-suspended in macrophage serum-free medium (macrophage-SFM, Life technologies, Paisley, UK; to achieve 2×10^6/well in a 24 well plate) containing 20 U/mL penicillin, 0.02 mg/mL streptomycin and 5 μg/mL amphotericin B and seeded on high bound 96-well plate, followed by incubation for 2 hr at 37° C. and at 5% CO2 to allow the macrophages to attach to the bottom of the plate. The cells on the plate were washed with fresh macrophage-SFM (200 μL/well) to remove neutrophils and other contaminated cells. The adherent cells (mainly sputum macrophages) on the plate were used for further analysis. Sputum induction and isolation were conducted in Quintiles Drug Research Unit at Guys Hospital and ethics approval and written informed consent was obtained by Quintiles.
Where appropriate, 1 μL of a solution containing either the test compound or reference article at the stated concentrations or alternatively 1 μL of DMSO as the vehicle control was added to each well (200 μL in media) and the cells were incubated for 2 hr. […] After washing with 200 uL wash buffer per well, the beads were resuspended in sheath fluid (150 μL) and analyzed immediately. The level of each analyte in the supernatant was calculated using Xcel Fit software with a 4 or 5-parameter equation using each standard curve. The inhibitions of each cytokine production were calculated at each concentration by comparison with vehicle control. The IC50 values were determined from concentration-inhibition curves using XL-Fit (idbs, Guildford, UK)

d-U937 cells = test: Cell viability: MTT assay; assay type: cell-based, human; conditions: 1 μg/mL
Procedure: Differentiated U937 cells were pre-incubated with each test compound (final concentration 1 μg/mL or 10 μg/mL in 200 μL media indicated below) under two protocols: the first for 4 hr in 5% FCS RPMI1640 media and the second in 10% FCS RPMI1640 media for 24 h. The supernatant was replaced with new media (200 μL) and MTT stock solution (10 μL, 5 mg/mL) was added to each well. After incubation for 1 hr the media were removed, DMSO (200 μL) was added to each well and the plates were shaken lightly for 1 hr prior to reading the absorbance at 550 nm. The percentage loss of cell viability was calculated for each well relative to vehicle (0.5% DMSO) treatment. Consequently an apparent increase in cell viability for drug treatment relative to vehicle is tabulated as a negative percentage.

| SMILES | IC50 (IL-8; COPD patients, LPS) [nM] | Emax at 0.1 µg/mL (IL-8; read-out: IL-8 E max, sputum macrophage) [%] | MTT Assay Cell viability at time point in d-U937 Cells 4 h (d-U937 cells; 4 h) | MTT Assay Cell viability at time point in d-U937 Cells 24 h (d-U937 cells; 24 h) |
| --- | --- | --- | --- | --- |
| Cc1ccc(-n2nc(C(C)(C)C)cc2NC(=O)Nc2ccc(Oc3ccnc(Nc4ccccc4)n3)c3ccccc23)cc1 [Example 1, 1-(3-(tert-Butyl)-1-(p-tolyl)-1H-pyrazol-5-yl)-3-(4-(2-(phenylamino)pyrimidin-4-yloxy)naphthalen-1-yl)urea] | 68 | 64 | – | – |
| Cc1ccc(-n2nc(C(C)(C)C)cc2NC(=O)Nc2ccc(Oc3ccnc(Nc4cccc(O)c4)n3)c3ccccc23)cc1 [Example 2, 1-(3-(tert-Butyl)-1-(p-tolyl)-1H-pyrazol-5-yl)-3-(4-((2-((3-hydroxyphenyl)amino)pyrimidin-4-yl)oxy)naphthalen-1-yl)urea] | – | – | −ve (−ve and +ve indicate the value is below and above respectively, the no significant effect threshold defined as 30% inhibition at 1 μg/mL at the time point indicated) | −ve (−ve and +ve indicate the value is below and above respectively, the no significant effect threshold defined as 30% inhibition at 1 μg/mL at the time point indicated) |
